Data on six compounds can be found in patent publication US10780101B2, “Amide derivatives of squalamine for the treatment of infections” (VIRBAC, priority 2016, dated 2020).

≈ marks a conversion by molar mass, not a printed value.

Test [1] deals with S. aureus Human ATCC 25923. The test is described as follows: MIC determination, S. aureus human ATCC 25923. Type of test: cell-based. The conditions noted are these: Staphylococcus aureus, ATCC25923; Gram-positive; Mueller-Hinton medium, 24 h at 37° C. On the procedure: (§1) A negative control (2 mL of sterile culture medium)
(§2) A positive control (1940 μL of culture medium+40 μL of DMSO+20 μL of the bacterial suspension) from a thawed biological strain (the biological strains are stored at −80° C. in glycerol).
(§3) The tubes were incubated at 37° C. for 24 hours at 100 rpm.
(§4) The microorganisms were handled under a type L2 laboratory fume cupboard and, before any handling, a UV cycle was programmed and only sterile material was used. […] The chemical compounds to be tested were prepared in a DMSO/methanol mixture (50/50) at a concentration of 5 mg/mL.
(§5) After 24 hours of incubation, a measurement of the optical density was taken using a spectrophotometer at 600 nm, collecting 100 μL of the bacterial suspension diluted in 900 μL of the sterile culture medium. This test required the use of a 96-well plate and the required volume of the microbial suspension to be seeded was calculated for an OD corresponding to a value equal to 0.01 in each well. In this plate, the first line corresponded to the negative control (195 μL of sterile culture medium in each well), the second line corresponded to the positive control (seeded culture medium supplemented with 2% of DMSO), and the third line was loaded twice with bacterial suspension; 8 μL of test product were placed in each well. Thereafter, a 0.5 cascade dilution was performed from this line.
(§6) The first column served as inhibition control. A sterile filter was then placed on the microplate, allowing the passage of gases but not of contaminants. The microplate was incubated at 37° C. under a humid atmosphere for 24 hours.
(§7) NB: The medium used is Mueller-Hinton (MH) medium for bacteria. All the tests were performed in duplicate.
(§8) After incubation, the filter was replaced with a transparent film, and an OD reading was then taken in an iEMS plate spectrophotometer at 620 nm. Calculation of the minimum inhibitory concentration (MIC) was performed.

In a further test the test system is S. aureus Animal (340). The test is described as follows: MIC determination, S. aureus animal (340). The format is cell-based. The settings on record: Staphylococcus aureus; Gram-positive; Mueller-Hinton medium, 24 h at 37° C. On the procedure:
as §1, §2, §3, §4, §5, §6, §7, §8

For test [2], the system named is S. intermedius Animal (1051997). The test is described as follows: MIC determination, S. intermedius animal (1051997). Type of test: cell-based. The settings on record: Staphylococcus intermedius; Gram-positive; Mueller-Hinton medium, 24 h at 37° C. On the procedure:
as §1, §2, §3, §4, §5, §6, §7, §8

Test [3] concerns E. faecalis Human ATCC 29212. The test is described as follows: MIC determination, E. faecalis human ATCC 29212. Type of test: cell-based. The conditions noted are these: Enterococcus faecalis, ATCC29212; Gram-positive; Mueller-Hinton medium, 24 h at 37° C. On the procedure: as §1, §2, §3, §4, §5, §6, §7, §8
Another test deals with E. coli Human ATCC 28922. In words: MIC determination, E. coli human ATCC 28922. The format is cell-based. The conditions noted are these: Escherichia coli, ATCC28922; Gram-negative; Mueller-Hinton medium, 24 h at 37° C. On the procedure:
as §1, §2, §3, §4, §5, §6, §7, §8

Another test relates to E. coli Animal (1956). In words: MIC determination, E. coli animal (1956). The format is cell-based. The conditions noted are these: Escherichia coli; Gram-negative; Mueller-Hinton medium, 24 h at 37° C. On the procedure: as §1, §2, §3, §4, §5, §6, §7, §8
Test [4] concerns P. aeruginosa Human ATCC 27853. The test is described as follows: MIC determination, P. aeruginosa human ATCC 27853. The format is cell-based. The conditions noted are these: Pseudomonas aeruginosa, ATCC27853; Gram-negative; Mueller-Hinton medium, 24 h at 37° C. On the procedure:
as §1, §2, §3, §4, §5, §6, §7, §8

The subject of test [5] is P. aeruginosa Animal (1051575). The test is described as follows: MIC determination, P. aeruginosa animal (1051575). The format is cell-based. The conditions noted are these: Pseudomonas aeruginosa; Gram-negative; Mueller-Hinton medium, 24 h at 37° C. On the procedure: as §1, §2, §3, §4, §5, §6, §7, §8
For another test, the system named is CHO-K1 cells. The test is described as follows: WST1 cytotoxicity test on CHO-K1 cells. Type of test: cell-based, Chinese hamster. The conditions noted are these: Cricetulus griseus, CHO-K1, 24 h, read-out: IC50 (μg/mL) CHO. On the procedure:
Test WST1 was used to measure the cytotoxic activity of the products. This is a colorimetric test which makes it possible to measure the viability and the degree of cell proliferation. It is based on cleavage of the colorless tetrazolium salts WST-1 (4-[3-(4-iodophenyl)-2-(4-nitrophenyl)-2H-5-tetrazolio]-1,3-benzene disulfonate) with mitochondrial dehydrogenases to the yellow-colored formazan derivative, which may be quantified by spectrophotometry at 420-480 nm.
The WST1 test was performed on Chinese hamster ovary cells. The CHO-K1 cells (ATCC, USA) are kept in culture in McCoy's 5A medium supplemented with 10% fetal calf serum, 2 mM of L-glutamine and a mixture of penicillin-streptomycin (100 U/ml: 10 μg/ml). The culture is incubated at 37° C. under an atmosphere enriched in CO2 (5%), and subcultured every two days.
The cells are transferred into 96-well plates (25000 cells/mL) in whole McCoy's 5A medium, and maintained for 24 hours at 37° C. under a humid atmosphere enriched in CO2 (5%). Increasing concentrations of test products are added to the wells in double tests and 8 growth controls containing the cells in the medium alone are included in each series of tests. After 24 hours at 37° C. (5% CO2), the culture medium is removed, the cells are rinsed in phosphate buffer (PBS) and 50 μL of PBS containing 10% of reagent WST1 are added to each well. After 20 minutes of incubation at 37° C., the results are read by spectrophotometry at 450 nm.
The results are expressed in dose-response relationships, modeled by nonlinear regression analysis using the TableCurve software. The 50% inhibitory concentration (IC50) represents the concentration of product that is capable of reducing the cell viability by 50%.
(Formazan colour is commonly taken as a measure of viable cells.)

The subject of the next test is P. aeruginosa (1051575). In words: Potentiation of doxycycline activity (combination MIC). Type of test: cell-based, Pseudomonas aeruginosa. The conditions noted are these: for MIC - P. aeruginosa (1051575): content of compound of formula (I) to restore the doxycycline activity (at 2 μg/mL): in presence of doxycycline 2 μg/mL, 24 hours at 37° C.

Usually MIC stands for the least concentration at which growth counts as inhibited. Read a low MIC as inhibition by little substance.

Regarding `CC(C)N(C(=O)CC[C@@H](C)[C@H]1CCC2C3C(CC[C@@]21C)[C@@]1(C)CC[C@H](NCCCNCCNCCCN)CC1C[C@H]3O)C(C)C` (stereo partly drawn) [(54), 3β-(bis(3-aminopropyl)ethylenediamine)-N,N-diisopropylchenodeoxycholamide], the MIC was 4 µg/mL (≈ 6.33 µM) in [1]; 4 µg/mL (≈ 6.33 µM) in the test on S. aureus Animal (340); 2 µg/mL (≈ 3.16 µM) in test [2]; 2 µg/mL (≈ 3.16 µM) in test [3]; 125 µg/mL (≈ 198 µM) with E. coli Human ATCC 28922; 8 µg/mL (≈ 12.7 µM) against E. coli Animal (1956). Besides, the MIC in [4] turned out to be 32 µg/mL (≈ 50.6 µM); in [5], 16 µg/mL (≈ 25.3 µM). The IC50 with CHO-K1 cells was determined as 22 µg/mL (≈ 34.8 µM). The “MIC - P. aeruginosa (1051575): content of compound of formula (I) to restore the doxycycline activity (at 2 μg/mL)” value (shortened to “MIC - P. aeruginosa (1051575): content”) with P. aeruginosa (1051575) turned out to be 2 µg/mL.
As for `C[C@H](CCC(=O)NC1CCCCC1)[C@H]1CCC2C3C(CC[C@@]21C)[C@@]1(C)CC[C@H](NCCCNCCCN)CC1C[C@H]3O` (stereo partly drawn) [(38), 3β-norspermidino-N-cyclohexylchenodeoxycholamide], the MIC in [1] was determined as 4 µg/mL (≈ 6.81 µM); against S. aureus Animal (340) it was 4 µg/mL (≈ 6.81 µM); in [2], 2 µg/mL (≈ 3.41 µM); in [3], 4 µg/mL (≈ 6.81 µM); in the test with E. coli Human ATCC 28922 it was 30 µg/mL (≈ 51.1 µM); against E. coli Animal (1956) it was 15 µg/mL (≈ 25.6 µM). In addition, the MIC in test [4] and in test [5] was 30 µg/mL (≈ 51.1 µM) throughout. Further, in the test on CHO-K1 cells, the IC50 was determined as 12 µg/mL (≈ 20.4 µM). The “MIC - P. aeruginosa (1051575): content” value in the test on P. aeruginosa (1051575) was found to be 2 µg/mL.
As for `CC(C)NC(=O)CC[C@@H](C)[C@H]1CCC2C3C(CC[C@@]21C)[C@@]1(C)CC[C@H](NCCCN(C)CCCN)CC1C[C@@H]3O` (stereo partly drawn) [(28), 3β-(bis(3-aminopropyl)methylamine)-N-isopropylursodeoxycholamide], the minimal inhibitory concentration (MIC) in test [1] is 28 µg/mL (≈ 49.9 µM); against S. aureus Animal (340), 28 µg/mL (≈ 49.9 µM); in test [2], 14 µg/mL (≈ 25 µM); in [3], 56 µg/mL (≈ 99.8 µM); in the test on E. coli Human ATCC 28922, 56 µg/mL (≈ 99.8 µM); against E. coli Animal (1956) it was 112 µg/mL (≈ 200 µM). The MIC in test [4] and in test [5] was 112 µg/mL (≈ 200 µM) throughout. For the same compound, the IC50 with CHO-K1 cells was 28 µg/mL (≈ 49.9 µM). Also, the “MIC - P. aeruginosa (1051575): content” value in the test with P. aeruginosa (1051575) amounted to 7 µg/mL.
Regarding `CC(C)NC(=O)CC[C@@H](C)[C@H]1CCC2C3C(CC[C@@]21C)[C@@]1(C)CC[C@H](NCCCN2CCN(CCCN)CC2)CC1C[C@H]3O` (stereo partly drawn) [(9), 3β-(1,4-bis(3-aminopropyl)piperazine)-N-isopropylchenodeoxycholamide], the MIC in [1] was 16 µg/mL (≈ 26 µM); against S. aureus Animal (340), 8 µg/mL (≈ 13 µM); in test [2], 8 µg/mL (≈ 13 µM); in test [3], 62 µg/mL (≈ 101 µM); in the test on E. coli Human ATCC 28922, 15 µg/mL (≈ 24.4 µM); against E. coli Animal (1956), 15 µg/mL (≈ 24.4 µM). The MIC in test [4] was determined as 124 µg/mL (≈ 201 µM); in test [5], 62 µg/mL (≈ 101 µM). For the same compound, the IC50 in the test on CHO-K1 cells was found to be 90 µg/mL (≈ 146 µM). Also, in the test with P. aeruginosa (1051575) (doxycycline at 2 μg/mL), the “synergism when administered with doxycycline” value is “noteworthy synergism”. The “MIC - P. aeruginosa (1051575): content” value in the test on P. aeruginosa (1051575) amounted to 2 µg/mL.
As for `CC(C)NC(=O)CC[C@@H](C)[C@H]1CCC2C3CCC4C[C@@H](NCCCNCCCN)CC[C@]4(C)C3CC[C@@]21C` (stereo partly drawn) [(18), 3β-norspermidino-N-isopropyllithocholamide], the MIC was found to be 6 µg/mL (≈ 11.3 µM) in test [1]; 3 µg/mL (≈ 5.65 µM) against S. aureus Animal (340); 0.8 µg/mL (≈ 1.51 µM) in [2]; 12 µg/mL (≈ 22.6 µM) in test [3]; 26 µg/mL (≈ 49 µM) in the test with E. coli Human ATCC 28922; 3 µg/mL (≈ 5.65 µM) against E. coli Animal (1956). The figures for the MIC in test [4] and in [5] were 104 µg/mL (≈ 196 µM) and 26 µg/mL (≈ 49 µM), respectively. Further, the IC50 in the test with CHO-K1 cells worked out at 20 µg/mL (≈ 37.7 µM). Further, the “MIC - P. aeruginosa (1051575): content” value in the test with P. aeruginosa (1051575) is 0.8 µg/mL.
In the case of `CC(C)NC(=O)CC[C@@H](C)[C@H]1CCC2C3C(C[C@H](O)[C@@]21C)[C@@]1(C)CC[C@H](NCCCNCCCCNCCCN)CC1C[C@H]3O` (stereo partly drawn) [Compound (31), 3β-spermino-N-isopropylcholamide], the MIC in test [1] was 4 µg/mL (≈ 6.31 µM); in the test on S. aureus Animal (340), 8 µg/mL (≈ 12.6 µM); in [2], 4 µg/mL (≈ 6.31 µM); in test [3], 8 µg/mL (≈ 12.6 µM); in the test on E. coli Human ATCC 28922, 16 µg/mL (≈ 25.2 µM); with E. coli Animal (1956), 32 µg/mL (≈ 50.5 µM). Moreover, the MIC stood at 64 µg/mL (≈ 101 µM) in test [4] and 32 µg/mL (≈ 50.5 µM) in [5]. The IC50 in the test with CHO-K1 cells was found to be 40 µg/mL (≈ 63.1 µM). For the same compound, in the test with P. aeruginosa (1051575), the “MIC - P. aeruginosa (1051575): content” value came out at 1 µg/mL.
